# “And” between values parts separate entries of the source, which are not always exact repeats. Equal values may be shown once.
# How the values were obtained:
# [1] = tested on: Vencobb 400 breed of broiler chicken; test: Pilot study in chicks: body weight; format: in vivo; conditions: Treatment group
# Experimental: (§1) A pilot study in 5605 chicks to evaluate the role of Menaquinone-n in bird weight increase, FCR and cost efficiency. The chicks were divided into Treatment group (N=2839) and Control group (N=2766). Menaquinone-7 (provided by Synergia Life Sciences as a 2000 ppm water dispersible powder) was administered to the treatment group for 30 days as per dosage outlined in Table 1. The birds were acclimatized for initial 4 days. Menaquinone-7 in divided doses was started on day 5 till day 30 and they were vaccinated on day 6.
# (§2) 5605 day old chicks were selected for the study. They were divided into Treatment group consisting of 2839 chicks, while the remaining 2766 were included in the Control group. The chicks were acclimatized for initial 4 days.
# (§3) Menaquinone-7 (provided by Synergia Life Sciences as a 2000 ppm water dispersible powder) was administered daily […] to the treatment group in daily dosages as outlined in Table 1. Menaquinone-7 in divided doses was started on day 5 till day 30 and the chicks were vaccinated on day 6. The body weight of the chicks was determined, and mortality rate observed on Day 11, Day 16, Day 22 and Day 28.
# (§4) A poultry farm with two open shades was selected for the study. Vencobb 400 breed of broiler chicken were selected for the study. Vencobb 400 breed was selected because at breeder level it is an early maturing bird with early peak, sustained production and better feed efficiency. Vencobb 400 is known for its proven adaptability to varied climatic conditions and husbandry practices.
# (§5) The chicks were housed in poultry sheds with tin rooting and open shade sides. Water was fed ad libitum through bell water feeders. The litter consisted of rice husk before housing the birds the cages were sanitized with hypo chloride, The chicks were provided with feed supplied from Godrej Tyson Foods, ad libitum.
# (§6) Menaquinone 7 supplementation was in a drinking water as in Table 1. Water was made up to the required level as required daily.
# Body weight was estimated by catching 5 birds in each group and determining the total weight and reporting the average at the intervals recorded in Table 2. At the end of treatment, after catching the total catching weight was recorded and the average weight determined.
# [2] = tested on: Vencobb 400 breed of broiler chicken; test: Pilot study in chicks: mortality; format: in vivo; conditions: for Cumulative Mortality: Treatment group (N=2839)
# Experimental: as §1, §2, §3, §4, §5, §6
# [3] = tested on: Vencobb 400 breed of broiler chicken; test: Pilot study in chicks: cage side observations; format: in vivo
# Experimental: Cage side observations like daily life behavior patterns, odor of litter etc. were recorded.
# [4] = tested on: Birds; test: Comparative study of control and treated group (Table 4): mortality, weight, FCR; format: in vivo; conditions: Treated group, 2000 birds, K2 supplementation 15 g of 2000 ppm
# Experimental: Feed conversion ratio was calculated by taking the total amount of feed consumed by the bird and dividing it by the amount of weight gained.
# [5] = regular MK-7 intake; cited from earlier work
smiles,measurement,setting,value
CC(C)=CCC/C(C)=C/CC/C(C)=C/CC/C(C)=C/CC/C(C)=C/CC/C(C)=C/CC/C(C)=C/CC1=C(C)C(=O)c2ccccc2C1=O [Menaquinone-7],Average weight (kg) per chick,[1]; Day 0 (before dosing; dosing day 5 to day 30 in drinking water),0.05 kg
same,Average weight (kg) per chick,[1]; Day 5 (start of dosing),0.05 kg
same,Average weight (kg) per chick,[1]; Day 11,0.622 kg
same,Average weight (kg) per chick,[1]; Day 16,0.966 kg
same,Average weight (kg) per chick,[1]; Day 22,1.36 kg
same,Average weight (kg) per chick,[1]; Day 28,2 kg and 2.0 kg
same,Cumulative Mortality,[2]; Day 0,0
same,Cumulative Mortality,[2]; Day 5 (start of dosing),30
same,Cumulative Mortality,[2]; Day 11,61
same,Cumulative Mortality,[2]; Day 16,87
same,Cumulative Mortality,[2]; Day 22,95
same,Cumulative Mortality,[2]; Day 28,100
same,Overall reduction in mortality rate,"[2]; Treatment group versus control group, end of 28th day",over 4%
same,Mortality rate/day,"[2]; Treatment group, Day 5 (start of dosing)",7.5 per day
same,Mortality rate/day,"[2]; Treatment group, Day 11",2.8 per day
same,Mortality rate/day,"[2]; Treatment group, Day 16",5.2 per day
same,Mortality rate/day,"[2]; Treatment group, Day 22",1.3 per day
same,Mortality rate/day,"[2]; Treatment group, Day 28",0.8 per day
same,Mortality % (overall mortality),"[2]; Treatment group, end of 28th day",3.52%
same,Ammonia odor in the litter (cage side observation),[3]; Treatment group as compared to the control group,reduced ammonia odor
same,"Stress due to heat, vaccination and crowding (cage side observation)",[3]; Treatment group in comparison to the control group,appeared comfortable
same,Avg wt./bird,[4],2.1560 kg
same,FCR,[4],0.728
same,Mortality,[4],1.8%
same,"Blood levels, times higher than when not regularly taken",[5],7-8 times

# From US20250185696A1, “NOVEL MENAQUINONE-N (VITAMIN-K2-7) SUPPLEMENTATION FOR LIVESTOCK AND POULTRY” (SYNERGIA LIFE SCIENCES PVT LTD., priority 2022, published 2025)
